Assay results from PubChem BioAssay (NCI).
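Grown in 96-well plates, cells were treated for 48 hours with each compound at five concentrations. Insufficient inhibition: endpoint recorded as highest concentration tested. At the TGI there is no net growth.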 Where a SMILES comes first, the peptide text is derived from it. The star is where a group is joined. Boc = CC(C)(C)OC(=O)*

Legend:
Assay in all cases: growth of human tumour cells (NCI), 48 h
UO-31 renal = test system: UO-31 renal
NCI/ADR-RES ovarian = test system: NCI/ADR-RES ovarian
SF-539 CNS = test system: SF-539 CNS
SK-MEL-5 melanoma = test system: SK-MEL-5 melanoma
UACC-62 melanoma = test system: UACC-62 melanoma
HL-60(TB) leukemia = test system: HL-60(TB) leukemia
CCRF-CEM leukemia = test system: CCRF-CEM leukemia
PC-3 prostate = test system: PC-3 prostate
RPMI-8226 leukemia = test system: RPMI-8226 leukemia
BT-549 breast = test system: BT-549 breast

Row | Compound | TGI (UO-31 renal) | TGI (NCI/ADR-RES ovarian) | TGI (SF-539 CNS) | TGI (SK-MEL-5 melanoma) | TGI (UACC-62 melanoma) | TGI (HL-60(TB) leukemia) | TGI (CCRF-CEM leukemia) | TGI (PC-3 prostate) | TGI (RPMI-8226 leukemia) | TGI (BT-549 breast)
1 | N#CC(C#N)=CNC(=S)c1ccncc1 | 52.8 µM | > 100 µM | 68.4 µM | > 100 µM | > 100 µM | > 100 µM | > 100 µM | > 100 µM | > 100 µM | 80.3 µM
2 | Clc1ccc(-c2nn3c(-c4ccncc4)nnc3s2)cc1 | > 100 µM | > 100 µM | > 100 µM | > 100 µM | > 100 µM | > 100 µM | > 100 µM | > 100 µM | > 100 µM | > 100 µM
3 | O=c1c2ccccc2nc2[nH][nH]c(=S)n12 | > 100 µM | > 100 µM | > 100 µM | > 100 µM | > 100 µM | > 100 µM | > 100 µM | > 100 µM | > 100 µM | > 100 µM
4 | O=C1c2cc3c(cc2CC1Br)CCC3 (stereo unspecified) | 22.4 µM | 19.2 µM | 4.2 µM | 3.36 µM | 11.7 µM | > 20.1 µM | 2.18 µM | 11.7 µM | 4.45 µM | 4.49 µM
5 | O=C(c1cc2ccccc2cc1O)N1CCCCC1 | > 100 µM | 94.3 µM | > 100 µM | 54.6 µM | > 100 µM | 46.9 µM | 42.6 µM | > 100 µM | 56.3 µM | 84.2 µM
6 | CN(C)CCCN1C(=S)N(CCCN(C)C)c2c3cc(O)ccc3nc3c([N+](=O)[O-])ccc1c23 | 18.7 µM | 22.4 µM | 17.1 µM | 12.1 µM | 19.6 µM | 22.1 µM | 19 µM | 13.3 µM | 15.5 µM | 28 µM
7 | O=P(c1ccccc1)(c1ccccc1)N1O[C@@H](c2ccccc2)C=C[C@H]1c1ccccc1 | 17.3 µM | 24 µM | 33 µM | 24.6 µM | 19.5 µM | 28.4 µM | 53.5 µM | 11.7 µM | 56.6 µM | 32.4 µM
8 | Nc1c(-c2cccc3ccccc23)c2ccc([N+](=O)[O-])cc2c(=O)n1-c1nc2ccccc2s1 | > 100 µM | 10.5 µM | 14.8 µM | 37.7 µM | > 100 µM | 5.37 µM | > 100 µM | > 35.3 µM | > 49.6 µM | > 100 µM
9 | C(=N\NC1=NCCCN1)/c1ccc2ccccc2c1 | 23.8 µM | 76.1 µM | 31.1 µM | 10.3 µM | 30 µM | 21 µM | 43.8 µM | 25.5 µM | 28.3 µM | 32.5 µM
10 | CC(C)/C(Cl)=N\OC(=O)Nc1ccc(C#N)cc1 | 21.2 µM | 32.2 µM | 29.4 µM | 9.91 µM | 31 µM | > 22.7 µM | 6.85 µM | 30.1 µM | 6.88 µM | 26.6 µM
11 | O=C(CCCN1CCC2(CC1)CC(=O)N(N1CCOCC1)C2=O)c1ccccc1 | > 100 µM | > 100 µM | > 100 µM | > 100 µM | > 100 µM | > 100 µM | > 100 µM | > 100 µM | > 100 µM | 27.9 µM
12 | CCCNC(=O)CCC(C)[C@H]1CCC2C3C(C[C@H](OC(C)=O)[C@@]21C)[C@@]1(C)CCC2(C[C@H]1C[C@H]3OC(C)=O)OOC1(CCC(C)CC1)OO2 (stereo partly specified) | 2.42 µM | 40.5 µM | 33.8 µM | 28.6 µM | > 100 µM | 32.4 µM | 2.16 µM | > 100 µM | 19.4 µM | 60.5 µM
13 | Oc1ccccc1/C=N/c1nc2cc3sc(/N=C/c4ccccc4O)nc3cc2s1 | > 100 µM | > 100 µM | > 100 µM | > 100 µM | > 100 µM | > 73.3 µM | > 100 µM | > 100 µM | > 100 µM | > 100 µM
14 | CC(C)(C)OC(=O)NCC(=O)NCC(=O)NCC(=O)NCC(=O)O (Boc-GGGG-OH) | > 100 µM | > 100 µM | > 100 µM | > 100 µM | > 100 µM | > 100 µM | > 100 µM | > 100 µM | > 100 µM | > 100 µM
15 | COc1ccc2nc3cc(Cl)ccc3c(NCCCNCCCNc3c4ccc(Cl)cc4nc4ccc(OC)cc34)c2c1 | 0.989 µM | > 22.8 µM | 0.192 µM |  | 0.189 µM | 23.2 µM | 14.8 µM | 0.182 µM | 27.7 µM | 1.67 µM
16 | N#C/C(=C\c1cc(Br)c(O)c(Br)c1)c1cccnc1 | 58.1 µM | 59.1 µM | 71.5 µM |  | > 100 µM | > 100 µM | > 100 µM | 69.7 µM | 86.3 µM | 56.9 µM
17 | COc1cc(NS(C)(=O)=O)ccc1N1Cc2cnc3ccc4[nH]c(C)cc1c4c23 | > 100 µM | > 100 µM |  | > 100 µM | > 100 µM | > 100 µM | > 100 µM | > 100 µM | 88.2 µM | > 100 µM
18 | O=c1c2cc3c(cc2[nH]c2ncccc12)OCO3 |  | > 10 µM | > 10 µM | > 10 µM | > 10 µM | > 10 µM | > 10 µM | > 10 µM | > 10 µM | > 10 µM
